In test [1] the target is T1, LXRα (Homo sapiens, UniProt Q13133).
T1 construct: expressed in transfected cells; host or cells: 293 cells
T1 sequence (Q13133 209-447 limits assumed): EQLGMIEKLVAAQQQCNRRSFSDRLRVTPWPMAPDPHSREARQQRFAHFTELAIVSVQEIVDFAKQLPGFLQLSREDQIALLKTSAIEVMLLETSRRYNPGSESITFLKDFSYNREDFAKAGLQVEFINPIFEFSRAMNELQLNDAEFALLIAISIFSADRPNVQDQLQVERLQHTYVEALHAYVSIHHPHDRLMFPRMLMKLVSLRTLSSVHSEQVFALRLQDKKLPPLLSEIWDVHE
The test can be described thus: cell-based GAL4-LXRα luciferase reporter assay. Conditions: 293 cells with GAL4 DNA-binding domain fused to LXRα ligand-binding domain, UAS luciferase reporter; concentration producing 50% of maximal luciferase activity. The text has this: (§1) LXRα agonist activity can be characterized in a cell-based assay or a peptide-sensor assay. The same assays can be utilized to characterize LXRα antagonist activity, by evaluating the ability of a compound to block the effects of an LXRα agonist, such as 24,25-epoxycholesterol.
Briefly, for the cell-based assay, a DNA-binding domain of the nonreceptor transcription factor GAL4 was fused to the putative ligand-binding domain of LXRα. The resultant construct was introduced into 293 cells, together with UAS-containing luciferase reporter construct. The transfected cells were then treated with chemical libraries and luciferase activity was measured. Individual compounds were evaluated relative to a control (no addition of compound) and the EC50 was determined as the concentration necessary to produce 50% of the maximal luciferase activity.
(In general: Reporter assays use an easily measured gene product as a stand-in for the process of interest.)

Test [2] has as its target T2, LXRα (Homo sapiens, UniProt Q13133).
T2 sequence (Q13133 1-447): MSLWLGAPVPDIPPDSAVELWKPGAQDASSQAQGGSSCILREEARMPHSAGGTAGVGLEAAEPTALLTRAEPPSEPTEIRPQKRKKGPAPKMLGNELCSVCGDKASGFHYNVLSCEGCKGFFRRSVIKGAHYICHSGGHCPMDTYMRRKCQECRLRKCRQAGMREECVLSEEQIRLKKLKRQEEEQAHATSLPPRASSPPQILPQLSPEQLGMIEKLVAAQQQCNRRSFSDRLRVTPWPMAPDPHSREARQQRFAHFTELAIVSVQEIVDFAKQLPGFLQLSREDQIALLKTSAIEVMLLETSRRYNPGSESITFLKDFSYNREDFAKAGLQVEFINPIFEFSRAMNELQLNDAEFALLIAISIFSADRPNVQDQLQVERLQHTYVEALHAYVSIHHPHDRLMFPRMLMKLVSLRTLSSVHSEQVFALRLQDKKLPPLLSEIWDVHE
The test is described as follows: peptide sensor LXR assay (in vitro). The class given is biochemical. Here is the method:
as §1
The peptide sensor LXR assay is an in vitro assay and was conducted as generally described in co-pending applications Ser. Nos. 08/975,614 (filed Nov. 21, 1997) and 09/163,713 (filed Sep. 30, 1998).

Bounds are passed on as bounds.

For the molecule `O=S(=O)(Nc1ccc(C(O)(C(F)(F)F)C(F)(F)F)cc1)c1ccccc1` [Compound 2], the EC50 at LXRα [1] and on LXRα [2] was below 2000 nM each time.

For orientation: EC50 means the midpoint of the concentration-response curve.

The values above are taken from US6316503A, “LXR modulators” (Tularik Inc., priority 2000, dated 2001).
